In ChEMBL document CHEMBL1201862, “PubChem BioAssay data set” (2004):
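1) Cells in 96-well plates. 2) Compound, 48 h, 5 concentrations. 3) Linear interpolation between surrounding doses. 4) Unreached endpoint = highest concentration. The concentration for 50% growth inhibition is given as GI50.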 The source made the active and inactive calls. Rule as the data show it: active = GI50 up to about 1.1 µM and inactive = higher.

What was measured:
Assay in all cases: DTP human tumour cell line panel, 48 h
[1] = system: SF-295
[2] = system: U-251
[3] = system: M14
[4] = system: SK-MEL-2
[5] = system: SR
[6] = system: NCI-H460
[7] = system: ACHN
[8] = system: HOP-62
[9] = system: OVCAR-3
[10] = system: 786-0
[11] = system: HCT-116
[12] = system: SNB-19
[13] = system: KM12
[14] = system: UACC-62
[15] = system: HL-60
[16] = system: EKVX

Measured: GI50

NC1=NC(Cn2nc(-c3ccccc3)c3ccccc3c2=O)=NNC(=O)N1
inactive: [1] > 100 µM | [2] > 100 µM | [3] > 100 µM | [4] > 100 µM | [5] > 100 µM | [6] > 100 µM | [7] > 100 µM | [8] > 100 µM | [9] > 100 µM | [10] > 100 µM | [11] > 100 µM | [12] > 100 µM | [13] > 100 µM | [14] > 100 µM

c1csc(C[N+]23CN4CN(CN(C4)C2)C3)c1
inactive: [1] > 100 µM | [2] 22.3 µM | [3] 17 µM | [4] 19.7 µM | [5] 15.3 µM | [6] 23.2 µM | [7] 37.5 µM | [8] 21.4 µM | [9] > 100 µM | [15] 14.7 µM | [10] 22.6 µM | [11] > 100 µM | [12] > 100 µM | [13] > 100 µM | [14] 22.6 µM

S=c1[nH]c2ccc(Br)cc2c(=S)n1-c1ccccc1
inactive: [1] 16.9 µM | [2] 6.58 µM | [3] 20.7 µM | [4] 16.4 µM | [6] 12.6 µM | [16] 37.2 µM | [7] 20.3 µM | [8] 24.4 µM | [9] 20.7 µM | [10] 24.5 µM | [11] 8.75 µM | [12] 5.85 µM | [13] 16.9 µM | [14] 10.5 µM

COCC12CC(CC1=O)C1C2ON2c3ccccc3C(=O)C12c1ccccc1 (stereo not drawn)
inactive: [1] > 100 µM | [2] > 100 µM | [3] > 100 µM | [5] 88.1 µM | [16] > 100 µM | [7] > 100 µM | [8] > 100 µM | [15] 76.4 µM | [10] > 100 µM | [11] > 100 µM | [12] > 100 µM | [14] 77.4 µM

CSc1ccc(NC(=O)C2c3[nH]c4ccccc4c3C3CCC(C(C)(C)C)CC3C2C(=O)O)cc1 (stereo not drawn)
inactive: [1] 17.6 µM | [2] 15 µM | [3] 18.4 µM | [5] 11.5 µM | [16] 24.3 µM | [7] 15.3 µM | [8] 16.9 µM | [15] 9.42 µM | [10] 17.5 µM | [11] 14.4 µM | [12] 30.5 µM | [14] 17.4 µM

NC(=O)n1ncc(Cl)c(Cl)c1=O
inactive: [1] > 100 µM | [2] > 100 µM | [3] > 100 µM | [4] > 100 µM | [6] > 100 µM | [16] > 100 µM | [7] > 100 µM | [8] > 100 µM | [9] > 100 µM | [15] 95.3 µM | [10] > 100 µM | [11] > 100 µM | [12] > 100 µM | [13] > 100 µM | [14] > 100 µM

CC(C)=CCC/C(=C/CC/C(C)=C/CCc1ccoc1)C(=O)O
inactive: [1] > 100 µM | [2] > 100 µM | [3] > 100 µM | [4] > 100 µM | [6] > 100 µM | [16] > 100 µM | [7] > 100 µM | [8] > 100 µM | [9] > 100 µM | [10] > 100 µM | [11] > 100 µM | [12] > 100 µM | [13] > 100 µM | [14] > 100 µM

BrC12c3ccccc3Sc3ccccc3C1(Br)c1ccccc12 (stereo not drawn)
inactive: [1] 23.7 µM | [2] 17.7 µM | [3] 15.2 µM | [4] 15.8 µM | [5] 11.1 µM | [6] 40.2 µM | [7] 24.2 µM | [8] 19.5 µM | [15] 5.21 µM | [10] 34.5 µM | [11] 22 µM | [12] 32.7 µM | [13] 19.9 µM | [14] 16.7 µM

Cc1nc(Nc2ccc([N+](=O)[O-])cc2)sc1C(=O)/C=C/c1ccc(N(C)C)cc1
inactive: [1] 40.1 µM | [2] > 100 µM | [4] 64.3 µM | [6] 65.2 µM | [16] 52.5 µM | [7] 48.3 µM | [8] > 100 µM | [9] > 100 µM | [15] 76.7 µM | [10] > 100 µM | [12] > 100 µM | [13] 57.8 µM | [14] > 100 µM

CCSc1c2ccccc2c(-c2nc(F)nc(F)n2)n1CCc1ccccc1
inactive: [1] > 100 µM | [2] > 100 µM | [3] > 100 µM | [4] > 100 µM | [5] 51.3 µM | [6] > 100 µM | [16] > 100 µM | [7] > 100 µM | [8] > 100 µM | [9] > 100 µM | [15] > 100 µM | [10] > 100 µM | [11] > 100 µM | [12] > 100 µM | [13] > 100 µM

CC(C)c1ccc2c(c1)CCC1C(C)(C)[C@@H](O)CC[C@]21C (stereo partly drawn)
inactive: [1] 18.3 µM | [2] 22.4 µM | [3] 27.9 µM | [5] 16.5 µM | [6] 17.9 µM | [7] 47.4 µM | [8] 19.3 µM | [9] 34 µM | [15] 17.7 µM | [10] 22.5 µM | [11] 18.5 µM | [12] 52.4 µM | [13] 22.3 µM | [14] 42.3 µM

COC1C2C[C@@H](O)CCC2C(C(=O)OCCl)C[C@H]1O (stereo partly drawn)
inactive: [2] > 100 µM | [3] > 100 µM | [4] > 100 µM | [5] > 100 µM | [6] > 100 µM | [7] > 100 µM | [8] > 100 µM | [9] > 100 µM | [15] > 100 µM | [10] > 100 µM | [11] > 100 µM | [12] > 100 µM | [13] > 100 µM | [14] > 100 µM

CCOC(=O)N1CCC(=O)C[C@@H]1C/C=C/P1(=O)O[C@H](c2ccccc2)C(C)N1C(C)C (stereo partly drawn)
inactive: [1] > 100 µM | [2] > 100 µM | [4] > 100 µM | [5] > 100 µM | [16] > 100 µM | [7] > 100 µM | [9] > 100 µM | [10] > 100 µM | [11] > 100 µM | [12] > 100 µM | [13] > 100 µM | [14] > 100 µM

CC(C)C1COC(c2cccc(C3=N[C@@H](C(C)C)CO3)n2)=N1 (stereo partly drawn)
inactive: [1] > 100 µM | [2] 59.3 µM | [3] > 100 µM | [4] > 100 µM | [5] > 100 µM | [6] > 100 µM | [16] > 100 µM | [7] > 100 µM | [8] > 100 µM | [9] > 100 µM | [15] > 100 µM | [10] > 100 µM | [11] > 100 µM | [12] > 100 µM | [13] > 100 µM
